This note sets out measurements from BindingDB's records for doi:10.1016/s0960-894x(01)00758-2 (University of St. Andrews, 2002).

The structures appear in SMILES notation.

The experiment in a line: Tested for binding affinity against kynureninase enzyme from bacterial cells.

Take `NC(CC(O)c1cccc(O)c1)C(=O)O` (stereo unspecified) [2-amino-4-[3'-hydroxyphenyl]-4-hydroxybutanoic acid]: the Ki turned out to be 10 µM.

Broadly, the Ki is a dissociation constant, usually derived from enzyme kinetics or from competition with a known ligand. Low values mean tighter binding, high ones weaker binding.
